Source: PubChem BioAssay (NCI)
Several values for one entry are separate records, joined by “and”; a condition that tells them apart may be missing. Identical values can stand only once.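 All cell lines were grown in 96-well plates and treated with compound for 48 hours. GI50 = concentration required for 50% inhibition of growth. TGI is the concentration that stops growth completely.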

Columns and labels:
Test in all cases: NCI anticancer screen, dose series, 48 h
A549 NSCLC = tested on: A549 NSCLC
DMS 114 small cell lung = tested on: DMS 114 small cell lung
OVCAR-5 ovarian = tested on: OVCAR-5 ovarian
OVCAR-8 ovarian = tested on: OVCAR-8 ovarian
SK-MEL-28 melanoma = tested on: SK-MEL-28 melanoma
SNB-75 CNS = tested on: SNB-75 CNS
SNB-78 CNS = tested on: SNB-78 CNS
SW-620 colon = tested on: SW-620 colon
HS 578T breast = tested on: HS 578T breast
OVCAR-3 ovarian = tested on: OVCAR-3 ovarian

Molecule `CCCCCCCCCCCCNC(=S)OC` has a TGI (A549 NSCLC) of 35 µM, a TGI (DMS 114 small cell lung) of 17.9 µM and a TGI (OVCAR-5 ovarian) of 30.9 µM. It also gave a TGI (OVCAR-8 ovarian) of 29.7 µM, a TGI (SK-MEL-28 melanoma) of 37.9 µM and a TGI (SNB-75 CNS) of 45 µM. For the same molecule, the TGI (SNB-78 CNS) was 45.9 µM and the TGI (SW-620 colon) was 30.2 µM.

`COc1cc2c(cc1OC)C(Cl)C(c1ccc(F)cc1)=C2Cl` (stereo unspecified) was tested, and the TGI (A549 NSCLC) was 32.8 µM, the TGI (DMS 114 small cell lung) was 28.5 µM and the TGI (HS 578T breast) was > 100 µM. For the same molecule, the TGI (OVCAR-3 ovarian) was 30.6 µM, the TGI (OVCAR-5 ovarian) was 30.2 µM and the TGI (OVCAR-8 ovarian) was 36.8 µM. The TGI (SK-MEL-28 melanoma) was 33.3 µM, the TGI (SNB-75 CNS) was 29.1 µM and the TGI (SNB-78 CNS) was 68.6 µM. It also gave a TGI (SW-620 colon) of 30.4 µM.

For `O=c1[nH]c(-c2ccccc2)nc2cc(Cl)ccc12`, the TGI (A549 NSCLC) was > 100 µM, the TGI (DMS 114 small cell lung) was > 100 µM and the TGI (OVCAR-3 ovarian) was > 100 µM. For the same molecule, the TGI (OVCAR-5 ovarian) was > 100 µM, the TGI (OVCAR-8 ovarian) was > 100 µM and the TGI (SK-MEL-28 melanoma) was > 100 µM. The TGI (SNB-75 CNS) was > 100 µM, the TGI (SNB-78 CNS) was > 100 µM and the TGI (SW-620 colon) was > 100 µM.

For `Cc1[cH-]c(=O)n(-c2ccccc2)n1.[Au+].[Au].c1ccc([PH+](c2ccccc2)c2ccccc2)cc1.c1ccc([PH+](c2ccccc2)c2ccccc2)cc1`, the GI50 (A549 NSCLC) was 46.8 µM, the TGI (A549 NSCLC) was > 100 µM and the GI50 (DMS 114 small cell lung) was 2810 nM. For the same molecule, the TGI (DMS 114 small cell lung) was 11.6 µM, the GI50 (OVCAR-3 ovarian) was 16.7 µM and the TGI (OVCAR-3 ovarian) was 39.1 µM. The GI50 (OVCAR-5 ovarian) was > 100 µM, the TGI (OVCAR-5 ovarian) was > 100 µM and the GI50 (OVCAR-8 ovarian) was 14.6 µM. For the same molecule, the TGI (OVCAR-8 ovarian) was 41.5 µM, the GI50 (SK-MEL-28 melanoma) was 2.52 µM and the TGI (SK-MEL-28 melanoma) was 14.9 µM. For the same molecule, the GI50 (SNB-75 CNS) was 14.7 µM, the TGI (SNB-75 CNS) was 39.3 µM and the GI50 (SNB-78 CNS) was 3.43 µM and 14.6 µM. The TGI (SNB-78 CNS) was > 100 µM, the GI50 (SW-620 colon) was 26.9 µM and the TGI (SW-620 colon) was 81.4 µM.

For `O=C1c2ccccc2C(=O)c2c(/C=C\N3CCCCC3)ccnc21`, the TGI (A549 NSCLC) was 5.84 µM, the TGI (DMS 114 small cell lung) was 4.2 µM and the TGI (HS 578T breast) was 4.32 µM. It also gave a TGI (OVCAR-3 ovarian) of 9.53 µM, a TGI (OVCAR-5 ovarian) of 16.2 µM and a TGI (OVCAR-8 ovarian) of 17.5 µM. The TGI (SK-MEL-28 melanoma) was 2.96 µM, the TGI (SNB-75 CNS) was 7.2 µM and the TGI (SNB-78 CNS) was 61.8 µM. It also gave a TGI (SW-620 colon) of 4.48 µM.

For `CCOC(=O)C1=C(C)N(NC(=O)Nc2ccccc2)C2(N)N(NC(=O)Nc3ccccc3)C(C)=C(C(=O)OCC)C12C(=O)OCC` (stereo unspecified), the TGI (A549 NSCLC) was > 100 µM, the TGI (DMS 114 small cell lung) was > 100 µM and the TGI (OVCAR-3 ovarian) was > 100 µM. For the same molecule, the TGI (OVCAR-5 ovarian) was > 100 µM, the TGI (OVCAR-8 ovarian) was > 100 µM and the TGI (SK-MEL-28 melanoma) was > 100 µM. For the same molecule, the TGI (SNB-75 CNS) was 98.1 µM, the TGI (SNB-78 CNS) was > 100 µM and the TGI (SW-620 colon) was > 100 µM.

For `O=C(Nc1nc(=S)[nH][nH]1)C(=O)C(C(=O)c1ccc2ccccc2c1)C1OC(=O)c2ccccc21` (stereo unspecified), the TGI (A549 NSCLC) was > 100 µM, the TGI (DMS 114 small cell lung) was 52.7 µM and the TGI (OVCAR-3 ovarian) was 67 µM. For the same molecule, the TGI (OVCAR-5 ovarian) was > 100 µM, the TGI (OVCAR-8 ovarian) was 94.4 µM and the TGI (SK-MEL-28 melanoma) was 49.1 µM. For the same molecule, the TGI (SNB-75 CNS) was 63.1 µM, the TGI (SNB-78 CNS) was > 100 µM and the TGI (SW-620 colon) was > 100 µM.

`CC1(C)CC(c2c[nH]c3ccccc23)=CC2=Nc3ccccc3C21O` (stereo unspecified) was tested, and the TGI (A549 NSCLC) was > 100 µM, the TGI (DMS 114 small cell lung) was > 100 µM and the TGI (OVCAR-3 ovarian) was > 100 µM. The TGI (OVCAR-5 ovarian) was > 100 µM, the TGI (OVCAR-8 ovarian) was > 100 µM and the TGI (SK-MEL-28 melanoma) was 77.7 µM. The TGI (SNB-75 CNS) was 25.4 µM, the TGI (SNB-78 CNS) was > 100 µM and the TGI (SW-620 colon) was > 100 µM.

`CCOc1ccc(NC2=CC(=O)C(=O)c3ccccc32)cc1` showed a TGI (A549 NSCLC) of 7.65 µM, a TGI (DMS 114 small cell lung) of 3.71 µM and a TGI (HS 578T breast) of 5.9 µM. It also gave a TGI (OVCAR-3 ovarian) of 8.21 µM, a TGI (OVCAR-5 ovarian) of 9.46 µM and a TGI (OVCAR-8 ovarian) of 15.4 µM. It also gave a TGI (SK-MEL-28 melanoma) of 7.22 µM, a TGI (SNB-75 CNS) of 5.35 µM and a TGI (SNB-78 CNS) of 39.5 µM. For the same molecule, the TGI (SW-620 colon) was 3.53 µM.

`S=P1(Oc2ccccc2)NNP2(=NP(N3CC3)(N3CC3)=NP(N3CC3)(N3CC3)=N2)NN1` (stereo unspecified) was tested, and the TGI (A549 NSCLC) was > 100 µM, the TGI (DMS 114 small cell lung) was > 100 µM and the TGI (OVCAR-3 ovarian) was > 100 µM. The TGI (OVCAR-5 ovarian) was > 100 µM, the TGI (OVCAR-8 ovarian) was > 100 µM and the TGI (SK-MEL-28 melanoma) was > 100 µM. The TGI (SNB-75 CNS) was > 100 µM and the TGI (SW-620 colon) was > 100 µM.

With `O=C1C(C(Nc2ccccc2)c2ccccc2)=C([O-])c2ccccc21.O=C1C(C(Nc2ccccc2)c2ccccc2)=C([O-])c2ccccc21.[Cu+2]` (stereo unspecified) the GI50 (A549 NSCLC) was 27.2 µM, the TGI (A549 NSCLC) was > 100 µM and the GI50 (OVCAR-8 ovarian) was 41.9 µM. The TGI (OVCAR-8 ovarian) was > 100 µM, the GI50 (SK-MEL-28 melanoma) was > 100 µM and the TGI (SK-MEL-28 melanoma) was > 100 µM. For the same molecule, the GI50 (SNB-75 CNS) was 17.2 µM, the TGI (SNB-75 CNS) was 92.1 µM and the GI50 (SNB-78 CNS) was 84.6 µM. For the same molecule, the TGI (SNB-78 CNS) was > 100 µM, the GI50 (SW-620 colon) was 42.6 µM and the TGI (SW-620 colon) was > 100 µM.

`COc1c(CC(C)=O)ccc2c1C(=O)c1ccc(C=O)c(OC(C)=O)c1C2=O` was tested, and the TGI (A549 NSCLC) was > 100 µM, the TGI (DMS 114 small cell lung) was 33.2 µM and the TGI (OVCAR-3 ovarian) was 35.3 µM. For the same molecule, the TGI (OVCAR-5 ovarian) was 30.3 µM, the TGI (OVCAR-8 ovarian) was 97.3 µM and the TGI (SK-MEL-28 melanoma) was 23 µM. It also gave a TGI (SNB-75 CNS) of 77.8 µM, a TGI (SNB-78 CNS) of 55.6 µM and a TGI (SW-620 colon) of 33.7 µM.

`Clc1ccc2cccc3c2c1C1OC3c2ccccc21` (stereo unspecified) was tested, and the TGI (A549 NSCLC) was > 100 µM, the TGI (DMS 114 small cell lung) was > 100 µM and the TGI (OVCAR-3 ovarian) was > 100 µM. The TGI (OVCAR-5 ovarian) was > 100 µM, the TGI (OVCAR-8 ovarian) was > 100 µM and the TGI (SK-MEL-28 melanoma) was > 100 µM. The TGI (SNB-75 CNS) was > 100 µM, the TGI (SNB-78 CNS) was > 100 µM and the TGI (SW-620 colon) was > 100 µM.

`CC[C@@H](c1ccc(O)c(O)c1)[C@@H](CC)c1ccc(O)c(O)c1` was tested, and the GI50 (A549 NSCLC) was 31.9 µM, the TGI (A549 NSCLC) was > 100 µM and the GI50 (HS 578T breast) was 73.3 µM. For the same molecule, the TGI (HS 578T breast) was > 100 µM, the GI50 (OVCAR-3 ovarian) was 3.61 µM and the TGI (OVCAR-3 ovarian) was 11.6 µM. It also gave a GI50 (OVCAR-5 ovarian) of 19.5 µM, a TGI (OVCAR-5 ovarian) of 37.8 µM and a GI50 (OVCAR-8 ovarian) of 25.6 µM. The TGI (OVCAR-8 ovarian) was > 100 µM, the GI50 (SK-MEL-28 melanoma) was 19.1 µM and the TGI (SK-MEL-28 melanoma) was 44.6 µM. It also gave a GI50 (SNB-75 CNS) of 17.7 µM, a TGI (SNB-75 CNS) of 41.6 µM and a GI50 (SW-620 colon) of 2.4 µM. It also gave a TGI (SW-620 colon) of 5.67 µM.

`O=C(/C=C/c1c(O)ccc2ccccc12)c1ccc([N+](=O)[O-])cc1` was tested, and the TGI (A549 NSCLC) was > 100 µM, the TGI (DMS 114 small cell lung) was 41.1 µM and the TGI (OVCAR-3 ovarian) was 39.8 µM. For the same molecule, the TGI (OVCAR-5 ovarian) was > 100 µM, the TGI (OVCAR-8 ovarian) was > 61.6 µM and the TGI (SK-MEL-28 melanoma) was > 67.6 µM. For the same molecule, the TGI (SNB-75 CNS) was > 100 µM, the TGI (SNB-78 CNS) was 66.4 µM and the TGI (SW-620 colon) was > 57.6 µM.

`NCCNCCNCCN` was tested, and the GI50 (A549 NSCLC) was > 100 µM, the TGI (A549 NSCLC) was > 100 µM and the GI50 (HS 578T breast) was > 100 µM. The TGI (HS 578T breast) was > 100 µM, the GI50 (OVCAR-3 ovarian) was > 100 µM and the TGI (OVCAR-3 ovarian) was > 100 µM. The GI50 (OVCAR-5 ovarian) was > 100 µM, the TGI (OVCAR-5 ovarian) was > 100 µM and the GI50 (OVCAR-8 ovarian) was > 100 µM. The TGI (OVCAR-8 ovarian) was > 100 µM, the GI50 (SK-MEL-28 melanoma) was > 100 µM and the TGI (SK-MEL-28 melanoma) was > 100 µM. For the same molecule, the GI50 (SNB-75 CNS) was > 100 µM, the TGI (SNB-75 CNS) was > 100 µM and the GI50 (SW-620 colon) was > 100 µM. For the same molecule, the TGI (SW-620 colon) was > 100 µM.
